Assay results: ChEMBL document CHEMBL3244200, “8-Carboxy-6-sulfamyldibenz[b,f][1,4]oxazepines and -thiazepines as potential high-ceiling diuretics” (1978)
Calls of active or inactive are those of the source. The rule behind the calls is not given here.

How the values were obtained:
Rattus norvegicus [1] = assay: High-ceiling diuretic activity in Wistar rat assessed as drug to urea ratio to cause diuresis at 50 mg/kg, po measured for 5 hrs (reference value: 0.44 +/- 0.05 no unit); type: functional, Urine
Rattus norvegicus [2] = assay: High-ceiling diuretic activity in Wistar rat assessed as drug to urea ratio to increase Na+ level in urine at 50 mg/kg, po measured for 5 hrs by flame photometric analysis (reference value: 0.47 +/- 0.07 no unit); type: functional
Rattus norvegicus [3] = assay: High-ceiling diuretic activity in Wistar rat assessed as drug to urea ratio to increase K+ level in urine at 50 mg/kg, po measured for 5 hrs by flame photometric analysis (reference value: 0.57 +/- 0.08 no unit); type: functional
Canis familiaris = assay: High-ceiling diuretic activity in Beagle dog at 20 mg/kg, po; type: functional, organism-based; design: dose 20 mg/kg; details: Canis lupus familiaris, Urine

| Compound | Ratio (Rattus norvegicus [1]) | Ratio (Rattus norvegicus [2]) | Ratio (Rattus norvegicus [3]) | Activity (Canis familiaris) |
| --- | --- | --- | --- | --- |
| NS(=O)(=O)c1cc(C(=O)O)cc2c1Sc1ccccc1CN2 | 0.07 | 0.13 | 0.05 | inactive |
| COC(=O)c1cc2c(c(S(N)(=O)=O)c1)Oc1ccccc1C(=O)N2 | 0.79 | 1.24 | 0.63 | – |
| NS(=O)(=O)c1cc(C(=O)O)cc2c1Sc1ccccc1C(=O)N2 | 0.56 | 0.71 | 0.62 | inactive |
| COC(=O)c1cc2c(c(S(N)(=O)=O)c1)Sc1ccccc1C(=O)N2 | 0.25 | 0.42 | 0.41 | – |
| CCCCNc1cc(C(=O)O)cc(S(N)(=O)=O)c1Oc1ccccc1 [BUMETANIDE] | 2.6 | 4.66 | 0.97 | – |
| NS(=O)(=O)c1cc(C(=O)O)cc2c1Oc1ccccc1CN2 | 0.47 | 1 | 0.9 | – |
